One experiment concerns the target GST-Bcl-XL (Homo sapiens, UniProt Q07817). The experiment in a line: TR-FRET binding assay, GST-Bcl-XL with F-Bak peptide probe. The conditions noted are these: TR-FRET Binding Affinity, GST-Bcl-XL, F-Bak peptide probe. The gist of the method:
(§1)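 Displacement of a fluorescein-labelled Bak peptide from the GST-tagged protein was followed by time-resolved FRET with a terbium anti-GST donor after 3 h incubation at room temperature. Inhibition constants were calculated with Wang's equation.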
In general terms: Time-resolved FRET reads energy transfer from a long-lived donor to a nearby acceptor.

The target in the next experiment is GST-Bcl-2 (Homo sapiens, UniProt P10415). The experiment in a line: TR-FRET binding assay, GST-Bcl-2 with F-Bak peptide probe. Particulars: TR-FRET Binding Affinity, GST-Bcl-2, F-Bak peptide probe. The gist of the method: as §1
A further experiment deals with FL5.12/Bcl-2 cells. The experiment in a line: FL5.12/Bcl-2 cell viability assay under IL-3 withdrawal (CellTitre Glo). It is filed as cell-based, murine. The conditions noted are these: Mus musculus, IL-3 withdrawn 48 hrs, then 24 hrs with compound. The method, boiled down:
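IL-3 withdrawal 48 hrs (no WEHI-3B medium), then compound 24 hrs, various concentrations; 37° C, 5% CO2; readout CellTitre Glo. Murine prolymphocytic FL5.12 stably overexpressing Bcl-2.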

Structures are written as SMILES.

Chain of GST-Bcl-2 (P10415 whole entry): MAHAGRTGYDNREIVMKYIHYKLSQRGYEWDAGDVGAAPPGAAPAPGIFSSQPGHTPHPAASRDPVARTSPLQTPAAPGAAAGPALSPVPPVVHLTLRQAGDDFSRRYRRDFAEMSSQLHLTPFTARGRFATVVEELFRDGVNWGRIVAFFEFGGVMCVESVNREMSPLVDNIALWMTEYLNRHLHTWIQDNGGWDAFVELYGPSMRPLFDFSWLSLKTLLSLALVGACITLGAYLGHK
Chain of GST-Bcl-XL (Q07817 whole entry): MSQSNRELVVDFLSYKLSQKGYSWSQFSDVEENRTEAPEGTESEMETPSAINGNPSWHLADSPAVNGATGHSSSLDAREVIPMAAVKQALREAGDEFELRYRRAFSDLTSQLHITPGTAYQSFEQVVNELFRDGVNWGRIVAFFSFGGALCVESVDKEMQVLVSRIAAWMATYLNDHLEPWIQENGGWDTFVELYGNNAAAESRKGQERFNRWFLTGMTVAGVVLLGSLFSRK

As to `CC1(C)CCC(CN2CCN(c3ccc(C(=O)NS(=O)(=O)c4ccc(NCCC5CCOCC5)c([N+](=O)[O-])c4)c(Oc4ccc5[nH]ccc5c4)c3)CC2)=C(c2ccc(Cl)cc2)C1` [Example 291, 4-(4-{[2-(4-chlorophenyl)-4,4-dimethylcyclohex-1-en-1-yl]methyl}piperazin-1-yl)-2-(1H-indol-5-yloxy)-N-({3-nitro-4-[(2-tetrahydro-2H-pyran-4-ylethyl)amino]phenyl}sulfonyl)benzamide], the inhibition constant (Ki) (usually the dissociation constant of the complex between target and ligand, obtained from inhibition or displacement) at GST-Bcl-XL was greater than 660 nM; at GST-Bcl-2, 0.56 nM. Moreover, in the experiment with FL5.12/Bcl-2 cells, the EC50 (commonly the concentration needed to bring the measured effect to its halfway point) was determined as 58 nM.

`CC1(C)CCC(CN2CCN(c3ccc(C(=O)NS(=O)(=O)c4ccc(NCCOC(F)(F)F)c([N+](=O)[O-])c4)c(Oc4cccc5[nH]ccc45)c3)CC2)=C(c2ccc(Cl)cc2)C1` [Example 292, 4-(4-{[2-(4-chlorophenyl)-4,4-dimethylcyclohex-1-en-1-yl]methyl}piperazin-1-yl)-2-(1H-indol-4-yloxy)-N-[(3-nitro-4-{[2-(trifluoromethoxy)ethyl]amino}phenyl)sulfonyl]benzamide]: the figures for the Ki at GST-Bcl-XL and at GST-Bcl-2 were greater than 660 nM and 0.598 nM, respectively. The EC50 in the experiment on FL5.12/Bcl-2 cells is 69.2 nM.

As to `COCCOCCNc1ccc(S(=O)(=O)NC(=O)c2ccc(N3CCN(CC4=C(c5ccc(Cl)cc5)CC(C)(C)CC4)CC3)cc2Oc2cccc3[nH]ccc23)cc1[N+](=O)[O-]` [Example 293, 4-(4-{[2-(4-chlorophenyl)-4,4-dimethylcyclohex-1-en-1-yl]methyl}piperazin-1-yl)-2-(1H-indol-4-yloxy)-N-[(4-{[2-(2-methoxyethoxy)ethyl]amino}-3-nitrophenyl)sulfonyl]benzamide], the inhibitory constant (Ki) on GST-Bcl-XL amounted to 260 nM; at GST-Bcl-2, 0.516 nM. For the same compound, the concentration giving a half-maximal response (EC50) in the experiment on FL5.12/Bcl-2 cells amounted to 68.1 nM.

Consider `CC1(C)CCC(CN2CCN(c3ccc(C(=O)NS(=O)(=O)c4ccc(NCCCS(C)(=O)=O)c([N+](=O)[O-])c4)c(Oc4cccc5[nH]ccc45)c3)CC2)=C(c2ccc(Cl)cc2)C1` [Example 294, 4-(4-{[2-(4-chlorophenyl)-4,4-dimethylcyclohex-1-en-1-yl]methyl}piperazin-1-yl)-2-(1H-indol-4-yloxy)-N-[(4-{[3-(methylsulfonyl)propyl]amino}-3-nitrophenyl)sulfonyl]benzamide], for which the results for the Ki on GST-Bcl-XL and at GST-Bcl-2 were 65.1 nM and 0.258 nM, respectively. The EC50 in the experiment on FL5.12/Bcl-2 cells turned out to be 59.8 nM.

As to `CC1(C)CCC(CN2CCN(c3ccc(C(=O)NS(=O)(=O)c4ccc(NCCCN5CCS(=O)(=O)CC5)c([N+](=O)[O-])c4)c(Oc4cccc5[nH]ccc45)c3)CC2)=C(c2ccc(Cl)cc2)C1` [Example 295, 4-(4-{[2-(4-chlorophenyl)-4,4-dimethylcyclohex-1-en-1-yl]methyl}piperazin-1-yl)-N-[(4-{[3-(1,1-dioxidothiomorpholin-4-yl)propyl]amino}-3-nitrophenyl)sulfonyl]-2-(1H-indol-4-yloxy)benzamide], the figures for the Ki on GST-Bcl-XL and at GST-Bcl-2 were 110 nM and 0.183 nM, respectively. In addition, in the experiment on FL5.12/Bcl-2 cells, the concentration for a half-maximal effect (EC50) was determined as 46.3 nM.

Take `CC1(C)CCC(CN2CCN(c3ccc(C(=O)NS(=O)(=O)c4ccc(CCC5CCOCC5)c([N+](=O)[O-])c4)c(Oc4ccc5[nH]ccc5c4)c3)CC2)=C(c2ccc(Cl)cc2)C1` [Example 296, 4-(4-{[2-(4-chlorophenyl)-4,4-dimethylcyclohex-1-en-1-yl]methyl}piperazin-1-yl)-2-(1H-indol-5-yloxy)-N-{[3-nitro-4-(2-tetrahydro-2H-pyran-4-ylethyl)phenyl]sulfonyl}benzamide]: the Ki is greater than 660 nM at GST-Bcl-XL and 0.651 nM on GST-Bcl-2. Besides, the 50% effective concentration (EC50) with FL5.12/Bcl-2 cells was found to be 182 nM.

`COCCOCCNc1ccc(S(=O)(=O)NC(=O)c2ccc(N3CCN(CC4=C(c5ccc(Cl)cc5)CC(C)(C)CC4)CC3)cc2Oc2ccc3[nH]ccc3c2)cc1[N+](=O)[O-]` [Example 298, 4-(4-{[2-(4-chlorophenyl)-4,4-dimethylcyclohex-1-en-1-yl]methyl}piperazin-1-yl)-2-(1H-indol-5-yloxy)-N-[(4-{[2-(2-methoxyethoxy)ethyl]amino}-3-nitrophenyl)sulfonyl]benzamide]: the inhibition constant (Ki) on GST-Bcl-XL is 446 nM; on GST-Bcl-2, 0.315 nM. Also, the EC50 in the experiment with FL5.12/Bcl-2 cells is 19.5 nM.

The record behind these values is US9073855B2, “BCL-2 selective apoptosis-inducing agents for the treatment of cancer and immune diseases” (AbbVie Inc., priority 2008, dated 2015).
